Seven molecules from ChEMBL document CHEMBL4229438, “N-Acylhydrazones as drugs” (Bioorg Med Chem Lett, 2018) can be followed below.

The term pIC50 denotes −log10 of the IC50, conventionally taken in molar units. Usually half-life stands for the time in which the quantity being followed falls by half.

In data set [1] the test system is HL-60. The data set can be described thus: Cytotoxicity against human HL60 cells by MTT assay. The data set is classed as functional, cell-based.
Data set [2] is described as follows: Stability in rat plasma assessed as parent compound remaining at 100 uM after 10 hrs by LC-MS analysis. The data set is classed as ADME, cell-free. To be noted: read-out: Stability.
Data set [3] has as its system Thoracic aorta. The experiment in a line: Vasodilatory activity in Wistar rat thoracic aortic rings assessed as inhibition of noradrenaline-induced contraction. It counts as functional, tissue-based.
Data set [4] is described as follows: Half life in patient with solid tumor at 230 mg/m2, iv treated for 30 mins by HPLC-MS analysis. It counts as ADME, organism-based. To be noted: human, in vivo.
For data set [5], the target named is T1, Caspase-3 (Mus musculus) (UniProt P70677).
T1 sequence (whole entry): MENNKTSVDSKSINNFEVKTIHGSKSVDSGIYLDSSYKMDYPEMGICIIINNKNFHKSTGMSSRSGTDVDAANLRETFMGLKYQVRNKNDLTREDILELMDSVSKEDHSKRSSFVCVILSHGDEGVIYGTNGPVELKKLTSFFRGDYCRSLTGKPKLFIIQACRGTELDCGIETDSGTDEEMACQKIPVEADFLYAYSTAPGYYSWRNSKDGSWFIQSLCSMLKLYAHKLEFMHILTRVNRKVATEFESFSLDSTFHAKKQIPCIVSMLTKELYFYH
The conditions noted are these: EL4, 5 uM.
Description: Activation of procaspase-3 in mouse EL4 cells assessed as increase in cell death by measuring combination index at 5 uM after 24 hrs in presence of 1000 nM doxorubucin by alamar blue assay

Data set [6] deals with T1, Caspase-3 (Mus musculus). The conditions noted are these: 7.5 uM.
Description: Activation of procaspase-3 in mouse B16F10 cells assessed as increase in cell death by measuring combination index at 7.5 uM after 24 hrs in presence of 50 nM doxorubucin by alamar blue assay
The target of data set [7] is T1, Caspase-3 (Mus musculus). To be noted: 4T1, 2.5 uM.
Description: Activation of procaspase-3 in mouse 4T1 cells assessed as increase in cell death by measuring combination index at 2.5 uM after 24 hrs in presence of 10 nM doxorubucin by alamar blue assay
The target in data set [8] is T1, Caspase-3 (Mus musculus). To be noted: EL4, 10 uM.
Description: Activation of procaspase-3 in mouse EL4 cells assessed as increase in cell death by measuring combination index at 10 uM after 24 hrs in presence of 500 nM doxorubucin by alamar blue assay
Data set [9] addresses T1, Caspase-3 (Mus musculus). To be noted: 7.5 uM. This is another data set of the same source.
Description: Activation of procaspase-3 in mouse 3LL cells assessed as increase in cell death by measuring combination index at 7.5 uM after 24 hrs in presence of 50 nM doxorubucin by alamar blue assay
Data set [10] has as its target T1, Caspase-3 (Mus musculus). The conditions noted are these: EL4, 10 uM. This is another data set of the same source.
Description: Activation of procaspase-3 in mouse EL4 cells assessed as increase in cell death by measuring combination index at 10 uM after 24 hrs in presence of 2500 nM doxorubucin by alamar blue assay
For data set [11], the target named is T1, Caspase-3 (Mus musculus). To be noted: 2.5 uM.
Description: Activation of procaspase-3 in mouse K7M2 cells assessed as increase in cell death by measuring combination index at 2.5 uM after 24 hrs in presence of 25 nM doxorubucin by alamar blue assay
The target in data set [12] is T1, Caspase-3 (Mus musculus). The conditions noted are these: 2.5 uM. The source holds these as a separate data set.
Description: Activation of procaspase-3 in mouse K7M2 cells assessed as increase in cell death by measuring combination index at 2.5 uM after 24 hrs in presence of 250 nM doxorubucin by alamar blue assay
Data set [13] concerns the target T1, Caspase-3 (Mus musculus). The conditions noted are these: 15 uM.
Description: Activation of procaspase-3 in mouse B16F10 cells assessed as increase in cell death by measuring combination index at 15 uM after 24 hrs in presence of 100 nM doxorubucin by alamar blue assay
For data set [14], the target named is T1, Caspase-3 (Mus musculus). To be noted: 7.5 uM. This is another data set of the same source.
Description: Activation of procaspase-3 in mouse 3LL cells assessed as increase in cell death by measuring combination index at 7.5 uM after 24 hrs in presence of 100 nM doxorubucin by alamar blue assay
Data set [15] has as its target T1, Caspase-3 (Mus musculus). To be noted: 4T1, 5 uM.
Description: Activation of procaspase-3 in mouse 4T1 cells assessed as increase in cell death by measuring combination index at 5 uM after 24 hrs in presence of 25 nM doxorubucin by alamar blue assay
The target of data set [16] is T1, Caspase-3 (Mus musculus). The conditions noted are these: 2.5 uM. This is another data set of the same source.
Description: Activation of procaspase-3 in mouse K7M2 cells assessed as increase in cell death by measuring combination index at 2.5 uM after 24 hrs in presence of 50 nM doxorubucin by alamar blue assay
In data set [17] the target is T1, Caspase-3 (Mus musculus). To be noted: 15 uM. This is another data set of the same source.
Description: Activation of procaspase-3 in mouse B16F10 cells assessed as increase in cell death by measuring combination index at 15 uM after 24 hrs in presence of 25 nM doxorubucin by alamar blue assay
Data set [18] has as its target T1, Caspase-3 (Mus musculus). To be noted: 4T1, 5 uM. The source holds these as a separate data set.
Description: Activation of procaspase-3 in mouse 4T1 cells assessed as increase in cell death by measuring combination index at 5 uM after 24 hrs in presence of 100 nM doxorubucin by alamar blue assay
In data set [19] the target is T1, Caspase-3 (Mus musculus). The conditions noted are these: 2.5 uM. The source holds these as a separate data set.
Description: Activation of procaspase-3 in mouse K7M2 cells assessed as increase in cell death by measuring combination index at 2.5 uM after 24 hrs in presence of 100 nM doxorubucin by alamar blue assay
Data set [20] deals with T1, Caspase-3 (Mus musculus). The conditions noted are these: EL4, 5 uM. This is another data set of the same source.
Description: Activation of procaspase-3 in mouse EL4 cells assessed as increase in cell death by measuring combination index at 5 uM after 24 hrs in presence of 500 nM doxorubucin by alamar blue assay
Data set [21] addresses T1, Caspase-3 (Mus musculus). To be noted: 4T1, 5 uM. This is another data set of the same source.
Description: Activation of procaspase-3 in mouse 4T1 cells assessed as increase in cell death by measuring combination index at 5 uM after 24 hrs in presence of 250 nM doxorubucin by alamar blue assay
Data set [22] concerns the target T1, Caspase-3 (Mus musculus). The conditions noted are these: 5 uM.
Description: Activation of procaspase-3 in mouse K7M2 cells assessed as increase in cell death by measuring combination index at 5 uM after 24 hrs in presence of 250 nM doxorubucin by alamar blue assay
In data set [23] the target is T1, Caspase-3 (Mus musculus). The conditions noted are these: 4T1, 5 uM. The source holds these as a separate data set.
Description: Activation of procaspase-3 in mouse 4T1 cells assessed as increase in cell death by measuring combination index at 5 uM after 24 hrs in presence of 10 nM doxorubucin by alamar blue assay
Data set [24] has as its target T1, Caspase-3 (Mus musculus). The conditions noted are these: 2.5 uM. This is another data set of the same source.
Description: Activation of procaspase-3 in mouse 3LL cells assessed as increase in cell death by measuring combination index at 2.5 uM after 24 hrs in presence of 100 nM doxorubucin by alamar blue assay
For data set [25], the target named is T1, Caspase-3 (Mus musculus). The conditions noted are these: 5 uM. The source holds these as a separate data set.
Description: Activation of procaspase-3 in mouse K7M2 cells assessed as increase in cell death by measuring combination index at 5 uM after 24 hrs in presence of 100 nM doxorubucin by alamar blue assay
For data set [26], the target named is T1, Caspase-3 (Mus musculus). To be noted: 2.5 uM. The source holds these as a separate data set.
Description: Activation of procaspase-3 in mouse 3LL cells assessed as increase in cell death by measuring combination index at 2.5 uM after 24 hrs in presence of 25 nM doxorubucin by alamar blue assay
In data set [27] the target is T1, Caspase-3 (Mus musculus). To be noted: 4T1, 2.5 uM. This is another data set of the same source.
Description: Activation of procaspase-3 in mouse 4T1 cells assessed as increase in cell death by measuring combination index at 2.5 uM after 24 hrs in presence of 250 nM doxorubucin by alamar blue assay
Data set [28] has as its target T1, Caspase-3 (Mus musculus). The conditions noted are these: 15 uM. This is another data set of the same source.
Description: Activation of procaspase-3 in mouse B16F10 cells assessed as increase in cell death by measuring combination index at 15 uM after 24 hrs in presence of 10 nM doxorubucin by alamar blue assay
The target in data set [29] is T1, Caspase-3 (Mus musculus). To be noted: EL4, 10 uM. This is another data set of the same source.
Description: Activation of procaspase-3 in mouse EL4 cells assessed as increase in cell death by measuring combination index at 10 uM after 24 hrs in presence of 100 nM doxorubucin by alamar blue assay
Data set [30] has as its target T1, Caspase-3 (Mus musculus). To be noted: 2.5 uM. This is another data set of the same source.
Description: Activation of procaspase-3 in mouse 3LL cells assessed as increase in cell death by measuring combination index at 2.5 uM after 24 hrs in presence of 50 nM doxorubucin by alamar blue assay
Data set [31] has as its target T1, Caspase-3 (Mus musculus). The conditions noted are these: 5 uM. The source holds these as a separate data set.
Description: Activation of procaspase-3 in mouse K7M2 cells assessed as increase in cell death by measuring combination index at 5 uM after 24 hrs in presence of 50 nM doxorubucin by alamar blue assay
The target in data set [32] is T1, Caspase-3 (Mus musculus). To be noted: 7.5 uM. The source holds these as a separate data set.
Description: Activation of procaspase-3 in mouse B16F10 cells assessed as increase in cell death by measuring combination index at 7.5 uM after 24 hrs in presence of 25 nM doxorubucin by alamar blue assay
In data set [33] the target is T1, Caspase-3 (Mus musculus). The conditions noted are these: 4T1, 2.5 uM. This is another data set of the same source.
Description: Activation of procaspase-3 in mouse 4T1 cells assessed as increase in cell death by measuring combination index at 2.5 uM after 24 hrs in presence of 100 nM doxorubucin by alamar blue assay
In data set [34] the target is T1, Caspase-3 (Mus musculus). The conditions noted are these: 7.5 uM. This is another data set of the same source.
Description: Activation of procaspase-3 in mouse B16F10 cells assessed as increase in cell death by measuring combination index at 7.5 uM after 24 hrs in presence of 250 nM doxorubucin by alamar blue assay
The target in data set [35] is T1, Caspase-3 (Mus musculus). The conditions noted are these: 4T1, 2.5 uM. This is another data set of the same source.
Description: Activation of procaspase-3 in mouse 4T1 cells assessed as increase in cell death by measuring combination index at 2.5 uM after 24 hrs in presence of 50 nM doxorubucin by alamar blue assay
The target of data set [36] is T1, Caspase-3 (Mus musculus). To be noted: 7.5 uM. This is another data set of the same source.
Description: Activation of procaspase-3 in mouse 3LL cells assessed as increase in cell death by measuring combination index at 7.5 uM after 24 hrs in presence of 250 nM doxorubucin by alamar blue assay
Data set [37] has as its target T1, Caspase-3 (Mus musculus). The conditions noted are these: 7.5 uM. The source holds these as a separate data set.
Description: Activation of procaspase-3 in mouse B16F10 cells assessed as increase in cell death by measuring combination index at 7.5 uM after 24 hrs in presence of 100 nM doxorubucin by alamar blue assay
Data set [38] has as its target T1, Caspase-3 (Mus musculus). The conditions noted are these: 7.5 uM. The source holds these as a separate data set.
Description: Activation of procaspase-3 in mouse 3LL cells assessed as increase in cell death by measuring combination index at 7.5 uM after 24 hrs in presence of 25 nM doxorubucin by alamar blue assay
The target in data set [39] is T1, Caspase-3 (Mus musculus). To be noted: EL4, 5 uM. This is another data set of the same source.
Description: Activation of procaspase-3 in mouse EL4 cells assessed as increase in cell death by measuring combination index at 5 uM after 24 hrs in presence of 100 nM doxorubucin by alamar blue assay
Data set [40] concerns the target T1, Caspase-3 (Mus musculus). The conditions noted are these: 4T1, 2.5 uM. The source holds these as a separate data set.
Description: Activation of procaspase-3 in mouse 4T1 cells assessed as increase in cell death by measuring combination index at 2.5 uM after 24 hrs in presence of 25 nM doxorubucin by alamar blue assay
Data set [41] concerns the target T1, Caspase-3 (Mus musculus). To be noted: EL4, 5 uM. The source holds these as a separate data set.
Description: Activation of procaspase-3 in mouse EL4 cells assessed as increase in cell death by measuring combination index at 5 uM after 24 hrs in presence of 2500 nM doxorubucin by alamar blue assay
Data set [42] addresses T1, Caspase-3 (Mus musculus). To be noted: 2.5 uM. The source holds these as a separate data set.
Description: Activation of procaspase-3 in mouse 3LL cells assessed as increase in cell death by measuring combination index at 2.5 uM after 24 hrs in presence of 250 nM doxorubucin by alamar blue assay
For data set [43], the target named is T1, Caspase-3 (Mus musculus). To be noted: 4T1, 5 uM. This is another data set of the same source.
Description: Activation of procaspase-3 in mouse 4T1 cells assessed as increase in cell death by measuring combination index at 5 uM after 24 hrs in presence of 50 nM doxorubucin by alamar blue assay
Data set [44] addresses T1, Caspase-3 (Mus musculus). To be noted: 2.5 uM. This is another data set of the same source.
Description: Activation of procaspase-3 in mouse 3LL cells assessed as increase in cell death by measuring combination index at 2.5 uM after 24 hrs in presence of 10 nM doxorubucin by alamar blue assay
Data set [45] deals with T1, Caspase-3 (Mus musculus). The conditions noted are these: 7.5 uM. This is another data set of the same source.
Description: Activation of procaspase-3 in mouse B16F10 cells assessed as increase in cell death by measuring combination index at 7.5 uM after 24 hrs in presence of 10 nM doxorubucin by alamar blue assay
Data set [46] addresses T1, Caspase-3 (Mus musculus). The conditions noted are these: 2.5 uM. This is another data set of the same source.
Description: Activation of procaspase-3 in mouse K7M2 cells assessed as increase in cell death by measuring combination index at 2.5 uM after 24 hrs in presence of 10 nM doxorubucin by alamar blue assay
For data set [47], the target named is T1, Caspase-3 (Mus musculus). The conditions noted are these: 15 uM. The source holds these as a separate data set.
Description: Activation of procaspase-3 in mouse B16F10 cells assessed as increase in cell death by measuring combination index at 15 uM after 24 hrs in presence of 50 nM doxorubucin by alamar blue assay
The target in data set [48] is T1, Caspase-3 (Mus musculus). To be noted: EL4, 5 uM. The source holds these as a separate data set.
Description: Activation of procaspase-3 in mouse EL4 cells assessed as increase in cell death by measuring combination index at 5 uM after 24 hrs in presence of 1500 nM doxorubucin by alamar blue assay
Data set [49] addresses T1, Caspase-3 (Mus musculus). To be noted: EL4, 10 uM. The source holds these as a separate data set.
Description: Activation of procaspase-3 in mouse EL4 cells assessed as increase in cell death by measuring combination index at 10 uM after 24 hrs in presence of 1000 nM doxorubucin by alamar blue assay
Data set [50] addresses T1, Caspase-3 (Mus musculus). The conditions noted are these: 5 uM. The source holds these as a separate data set.
Description: Activation of procaspase-3 in mouse K7M2 cells assessed as increase in cell death by measuring combination index at 5 uM after 24 hrs in presence of 25 nM doxorubucin by alamar blue assay
Data set [51] deals with T1, Caspase-3 (Mus musculus). The conditions noted are these: 5 uM. The source holds these as a separate data set.
Description: Activation of procaspase-3 in mouse K7M2 cells assessed as increase in cell death by measuring combination index at 5 uM after 24 hrs in presence of 10 nM doxorubucin by alamar blue assay
Data set [52] deals with T1, Caspase-3 (Mus musculus). The conditions noted are these: 15 uM. This is another data set of the same source.
Description: Activation of procaspase-3 in mouse B16F10 cells assessed as increase in cell death by measuring combination index at 15 uM after 24 hrs in presence of 250 nM doxorubucin by alamar blue assay
The target in data set [53] is T1, Caspase-3 (Mus musculus). To be noted: 7.5 uM. This is another data set of the same source.
Description: Activation of procaspase-3 in mouse 3LL cells assessed as increase in cell death by measuring combination index at 7.5 uM after 24 hrs in presence of 10 nM doxorubucin by alamar blue assay
Data set [54] deals with T1, Caspase-3 (Mus musculus). To be noted: EL4, 10 uM. The source holds these as a separate data set.
Description: Activation of procaspase-3 in mouse EL4 cells assessed as increase in cell death by measuring combination index at 10 uM after 24 hrs in presence of 1500 nM doxorubucin by alamar blue assay
Data set [55] concerns HCT-8. The experiment in a line: Cytotoxicity against human HCT8 cells. It counts as functional, cell-based.
Data set [56] concerns OVCAR-8. The data set can be described thus: Cytotoxicity against human OVCAR8 cells. The data set is classed as functional, cell-based.
Data set [57] deals with HL-60. The experiment in a line: Cytotoxicity against human HL60 cells. The data set is classed as functional, cell-based.
Data set [58] deals with Muscarinic acetylcholine receptor M3 (Rattus norvegicus, UniProt P08483). The experiment in a line: Agonist activity at endothelial M3 receptor in Wistar-Kyoto rat thoracic aortic rings assessed as inhibition of phenylephrine-induced contraction. It counts as functional.

pIC50: −log10 of the molar value.

Chain of Muscarinic acetylcholine receptor M3 (P08483 whole entry): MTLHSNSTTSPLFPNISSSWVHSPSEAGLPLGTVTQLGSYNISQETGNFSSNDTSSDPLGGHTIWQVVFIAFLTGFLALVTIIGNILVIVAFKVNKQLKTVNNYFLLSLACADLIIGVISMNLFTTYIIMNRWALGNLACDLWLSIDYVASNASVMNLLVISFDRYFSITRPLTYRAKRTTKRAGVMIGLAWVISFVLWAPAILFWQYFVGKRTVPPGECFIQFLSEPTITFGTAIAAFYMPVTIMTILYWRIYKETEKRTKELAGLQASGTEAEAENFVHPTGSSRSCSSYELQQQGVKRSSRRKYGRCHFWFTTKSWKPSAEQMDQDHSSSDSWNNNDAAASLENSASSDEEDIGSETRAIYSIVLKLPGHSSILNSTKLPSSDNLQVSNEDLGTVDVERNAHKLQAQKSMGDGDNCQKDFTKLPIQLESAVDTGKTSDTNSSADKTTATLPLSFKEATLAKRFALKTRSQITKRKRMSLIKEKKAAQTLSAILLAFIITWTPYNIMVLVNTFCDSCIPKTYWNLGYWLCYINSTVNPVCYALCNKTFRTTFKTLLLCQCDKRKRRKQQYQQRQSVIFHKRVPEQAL

Molecule `COc1cc(C(=O)N(C)/N=C/c2ccccc2)cc(OC)c1OC` had a pIC50 in data set [1] of 7.52.
Take `O=C(N/N=C/c1ccccc1B(O)O)c1ccncc1`: the remaining at 10 h, 100 µM in data set [2] is over 93%.
For `O=C(N/N=C/c1cccs1)c1ccc2c(c1)OCO2`, the pIC50 in data set [3] is 4.13.
Molecule `COc1cccc2c1C(=O)c1c(O)c3c(c(O)c1C2=O)C[C@@](O)(/C(CO)=N/NC(=O)CCCCCN1C(=O)C=CC1=O)C[C@@H]3OC1C[C@H](N)[C@H](O)[C@H](C)O1` (stereo partly drawn) returned a half-life in data set [4] of 20.1 to 21.1 h.
For the molecule `C=CCc1cccc(/C=N/NC(=O)CN2CCN(Cc3ccccc3)CC2)c1O`, the CI in [5] lay within 0.79 to 30.3; in data set [6], 0.84 to 20.1; in data set [7] it was 0.89 to 12.2; in data set [8], 0.69 to 27.7; in data set [9] it was 0.44 to 41.3; in data set [10], 0.21 to 61.4. Also, the CI in [11] fell in the range of 0.84 to 15.2; in data set [12], 0.93 to 39.6; in data set [13] it was 0.53 to 40.7; in data set [14] it was 0.32 to 66.8; in data set [15], 0.81 to 23.1; in data set [16], 0.88 to 16.7. The CI in data set [17] fell in the range of 0.84 to 23.9; in data set [18], 0.86 to 28; in [19] it was 0.66 to 28.1; in data set [20], 0.77 to 24; in [21] it was 0.42 to 57.2; in data set [22] it was 0.67 to 55.9. For the same molecule, the CI in [23] lay in the range of 0.74 to 23.3; in [24], 0.48 to 55.7; in [25], 0.49 to 42.8; in data set [26] it was 0.72 to 20.3; in data set [27] it was 0.47 to 49.7; in [28], 0.83 to 22.5. The CI in data set [29] is 0.9 to 18.2; in data set [30], 0.71 to 28.9; in data set [31], 0.73 to 26.6; in data set [32] it was 0.76 to 18.2; in data set [33], 0.84 to 21.5; in [34], 0.42 to 58.2. Further, the CI in [35] was in the range of 0.95 to 15.5; in data set [36], 0.28 to 86.3; in data set [37], 0.65 to 31; in data set [38], 0.41 to 32.3; in data set [39], 1.38 to 11.7; in data set [40] it was 0.79 to 15. Further, the CI in data set [41] fell in the range of 0.3 to 55.6; in [42] it was 0.17 to 79.6; in [43] it was 0.86 to 24.1; in [44], 0.54 to 18.3; in [45], 0.66 to 17.8; in data set [46], 0.97 to 12.8. Further, the CI in [47] lay in the range of 0.72 to 29; in [48], 0.63 to 38; in data set [49], 0.53 to 37; in data set [50], 0.61 to 26.8; in data set [51], 0.56 to 26.4; in data set [52], 0.39 to 62.2. Further, the CI is 0.36 to 27.8 in data set [53] and 0.37 to 46.7 in data set [54].
As to `COc1cc(C(=O)N/N=C/c2cc3ccccc3s2)cc(OC)c1OC`, the negative-log IC50 (pIC50) in [55] was 8.30; in [56], 8.05; in data set [57] it was 9.40.
As for `O=C(N/N=C/c1ccsc1)c1ccc2c(c1)OCO2`, in data set [58], the pIC50 was 6.46.
